According to article PMC7247319, “The mitochondria-targeted peptide SS-31 binds lipid bilayers and modulates surface electrostatics as a key component of its mechanism of action” (The Journal of Biological Chemistry, 2020):
Where a SMILES comes first, the peptide text is derived from it. [ ]: non-standard residue; d: D form. Dmt = Cc1cc(O)cc(C)c1C[C@H](N)C(=O)O

System: LUVs containing 20 mol % TOCL or POPG
Assay: Zeta potential measurements of LUVs with increasing peptide
Conditions: LUVs 100 μM total lipid, n = 3
Description: Figure 3. SS-31 binding and surface electrostatics. A, binding isotherms. Peptide was titrated with LUVs of the indicated composition (20% TOCL, [SS-31] = 7.5 μM and 20% POPG, [SS-31] = 3.8 μM) at 30-nmol total lipid increments in the presence of different concentrations of added KCl. Values shown are means ± S.D. (error bars) (n = 3), and lines show data fits based on Equation S3. […] B and C, effect of SS-31 binding on surface charge. Measurements of ζ (B) and ANS fluorescence (C) are shown as a function of [SS-31]/[lipid]^eff for membranes containing 20% TOCL and 20% POPG as indicated. Values shown are means ± S.D. (error bars) (n = 3).
To continue this analysis, we determined the relationship between SS-31 binding and surface electrostatics by two complementary approaches. We first performed zeta potential (ζ) measurements of LUVs containing 20 mol % TOCL or POPG with increasing [SS-31] (Fig. 3B). […] As an independent technique, we measured the effect of SS-31 on surface electrostatics using 1-anilinonaphthalene-8-sulfonic acid (ANS), a fluorescent reporter whose binding to anionic bilayers increases as the magnitude of the ψs is reduced, measured as an increase in probe emission intensity ([42]) (Fig. 3C and Fig. S9D). […]

SMILES: Cc1cc(O)cc(C)c1C[C@H](NC(=O)[C@H](N)CCCNC(=N)N)C(=O)N[C@@H](CCCCN)C(=O)N[C@@H](Cc1ccccc1)C(N)=O [SS-31, D-Arg-2′6′-dimethyl-Tyr-Lys-Phe-NH2] (H-[dR][Dmt]KF-NH2)
- zeta potential (ζ) at saturation with increasing peptide: ~−30 mV
